From patent publication US20100280098A1, “RECEPTOR TARGETED OLIGONUCLEOTIDES” (priority 2007, published 2010)
Entries after “also recorded” stand apart in the source; their conditions may differ.

Tests used:
[1] = system: αvβ3; test: Cell surface αvβ3 level by immunostaining and flow cytometry; type: cell-based, human; conditions: 200 nM, 24 h exposure
Method: Then, αvβ3 levels were determined by immunostaining with anti-αvβ3 antibody. […] The y axis of each panel indicates the number of cells, while the x axis indicates the log of fluorescence intensity.
(§1) Cell Uptake, Confocal Fluorescence Microscopy, and Flow Cytometry: Total cellular uptake of Tamra-labeled oligonucleotides was monitored using a Nanodrop microfluorimeter (Nanodrop Technologies, Wilmington, Del., United States of America). After treatment with oligonucleotides the cells were lysed in a mild non-ionic detergent buffer and the Tamra fluorescence (emission 583 nm) was quantitated based on a linear standard curve of unconjugated Tamra in buffer. Intracellular distribution of Tamra-labeled oligonucleotides was examined using an Olympus Confocal FV300 fluorescent microscope (Olympus America Inc., Center Valley, Pa., United States of America) with 60X-oil immersion objective, as previously described. See Astriab-Fisher et al. (2004) Biochem. Pharmacol., 68, 403-407. Expression levels of αvβ3 were monitored by immunostaining with an anti-human-αvβ3 monoclonal (Chemicon, Temecula, Calif., United States of America) followed by an Alexa 488 rabbit antimouse secondary antibody, with analysis by flow cytometry using a DakoCytomation (Glostrop, Denmark) machine.

[2] = system: A375SM-Luc705-B cells; test: Subcellular distribution and co-localization by confocal fluorescence microscopy (peptide conjugate); type: cell-based; conditions: living cells; 200 nM, complex 100 nM
Description: as §1

[3] = system: A375SM-Luc705-B cells; test: Short-term toxicity, viable cell count after 48 h (peptide conjugate); type: cell-based; conditions: concentrations up to 1000 nM, 48 h
Method: Toxicity Studies: Cells were treated with various concentrations of oligonucleotides or conjugates under the same conditions as used for the luciferase induction experiments. After 48 h in medium plus 1% FBS, cells were trypsinized and viable cells were counted in an electronic particle counter.

[4] = target: Micrococcal nuclease (Staphylococcus aureus, UniProt P00644); test: Nuclease stability by polyacrylamide gel; type: in vitro ADME; conditions: 0-12 h, 37° C.
Method: The reactions were then stopped by the addition of EDTA (50 mM), and the fluorescent samples were analyzed on 10% polyacrylamide gels and examined under long-wavelength ultraviolet illumination to detect possible nucleolytic cleavage of the Tamra-labeled oligonucleotides.

[5] = system: A375SM-Luc705-B cells; test: Confocal microscopy of live cells, albumin conjugates; type: cell-based; conditions: 100 nM, 24 h
Method: Cellular Uptake and Confocal Microscopy: Cells were seeded onto either 12 well plates at 1×10^5 cells per well for cellular uptake measurements or in 12 well glass-bottom plates at 2×10^4 cells per well for live cell analysis by confocal microscopy. After treatment of cells with Tamra labeled oligonucleotide derivatives for 24 h, the cells were either lysed for measurement of Tamra fluorescence using a Nanodrop microfluorimeter (Nanodrop Technologies, Wilmington, Deleware, United States of America) or washed with DMEM containing 10% FBS and then placed in DMEM without phenol red, supplemented with 1% FBS, for confocal microscopy analysis. Co-localization of Tamra-labeled oligonucleotides with Alexa 488 labeled Transferrin or Dextran (Molecular Probes, Beaverton, Oreg., United States of America) in live cell was also examined by confocal microscopy. An Olympus confocal microscope with a 60× objective lens was used, and the data were processed using Fluoview software (Olympus, Center Valley, Pa., United States of America) as described in Example 1.

5′-GTTATTCTTTAGAATGGTGC-Tamra-3′ [623-Tamra]
level of surface αvβ3 expression [1]: no effect
cellular uptake seen by confocal microscopy [2]: relatively little uptake was observed; also recorded: Very little fluorescence related to cellular uptake of Tamra was observed
short-term toxicity (viable cells) [3]: little effect
stability to micrococcal nuclease [4]: gradual degradation
intracellular Tamra fluorescence [5]: less intracellular fluorescene
nuclear accumulation of Tamra fluorescence [5]: No Tamra fluorophore appeared to have accumulated in nuclei
nuclear accumulation of Tamra fluorescence ([5]; listed as 623 Tamra): no evidence of nuclear accumulation
